# Laboratory results published in patent US20250352520A1, “USE OF DEXPRAMIPEXOLE FOR THE TREATMENT OF EOSINOPHILIC COPD” (Areteia Therapeutics, Inc., priority 2024, published 2025).
# Conditions: Week 12; >=50% AEC reduction at Week 16
smiles,measurement,value
"CCCN[C@@H]1CCc2nc(N)sc2C1 [Dexpramipexole, (6R)-2-amino-4,5,6,7-tetrahydro-6-(propylamino)benzothiazole]","Pre-BD FEF25-75 % change from baseline, Max",14%
same,"Pre-BD FEF25-75 % change from baseline, Mean ± SD",6.3 ± 8.24%
same,"Pre-BD FEF25-75 % change from baseline, Median",6.8%
same,"Pre-BD FEF25-75 % change from baseline, Min",−2%
same,"Pre-BD FEF25-75 % change from baseline, Q1",−2%
same,"Pre-BD FEF25-75 % change from baseline, Q3",14%
same,"Pre-BD FEF25-75 Observed, Max",900 mL/s
same,"Pre-BD FEF25-75 Observed, Mean ± SD",640.0 ± 351.57 mL/s
same,"Pre-BD FEF25-75 Observed, Median",780.0 mL/s
same,"Pre-BD FEF25-75 Observed, Min",240 mL/s
same,"Pre-BD FEF25-75 Observed, Q1",240 mL/s
same,"Pre-BD FEF25-75 Observed, Q3",900 mL/s
same,"Pre-BD FEF25-75 change from baseline, Max",50 mL/s
same,"Pre-BD FEF25-75 change from baseline, Mean ± SD",20.0 ± 36.06 mL/s
same,"Pre-BD FEF25-75 change from baseline, Median",30.0 mL/s
same,"Pre-BD FEF25-75 change from baseline, Min",-20 mL/s
same,"Pre-BD FEF25-75 change from baseline, Q1",-20 mL/s
same,"Pre-BD FEF25-75 change from baseline, Q3",50 mL/s
same,"Pre-BD FEV1 % change from baseline, Max",37%
same,"Pre-BD FEV1 % change from baseline, Mean ± SD",25.3 ± 19.37%
same,"Pre-BD FEV1 % change from baseline, Median",36. %
same,"Pre-BD FEV1 % change from baseline, Min",3%
same,"Pre-BD FEV1 % change from baseline, Q1",3%
same,"Pre-BD FEV1 % change from baseline, Q3",37%
same,"Pre-BD FEV1 Observed, Max",1780 mL
same,"Pre-BD FEV1 Observed, Mean ± SD",1496.7 ± 448.14 mL
same,"Pre-BD FEV1 Observed, Median",1730.0 mL
same,"Pre-BD FEV1 Observed, Min",980 mL
same,"Pre-BD FEV1 Observed, Q1",980 mL
same,"Pre-BD FEV1 Observed, Q3",1780 mL
same,"Pre-BD FEV1 change from baseline, Max",480 mL
same,"Pre-BD FEV1 change from baseline, Mean ± SD",263.3 ± 215.02 mL
same,"Pre-BD FEV1 change from baseline, Median",260.0 mL
same,"Pre-BD FEV1 change from baseline, Min",50 mL
same,"Pre-BD FEV1 change from baseline, Q1",50 mL
same,"Pre-BD FEV1 change from baseline, Q3",480 mL
same,"Pre-BD FVC % change from baseline, Max",18%
same,"Pre-BD FVC % change from baseline, Mean ± SD",12.0 ± 5.17%
same,"Pre-BD FVC % change from baseline, Median",11.1%
same,"Pre-BD FVC % change from baseline, Min",7%
same,"Pre-BD FVC % change from baseline, Q1",7%
same,"Pre-BD FVC % change from baseline, Q3",18%
same,"Pre-BD FVC Observed, Max",2800 mL
same,"Pre-BD FVC Observed, Mean ± SD",2690.0 ± 181.93 mL
same,"Pre-BD FVC Observed, Median",2790.0 mL
same,"Pre-BD FVC Observed, Min",2480 mL
same,"Pre-BD FVC Observed, Q1",2480 mL
same,"Pre-BD FVC Observed, Q3",2800 mL
same,"Pre-BD FVC change from baseline, Max",370 mL
same,"Pre-BD FVC change from baseline, Mean ± SD",280.0 ± 90.00 mL
same,"Pre-BD FVC change from baseline, Median",280.0 mL
same,"Pre-BD FVC change from baseline, Min",190 mL
same,"Pre-BD FVC change from baseline, Q1",190 mL
same,"Pre-BD FVC change from baseline, Q3",370 mL
same,"Pre-BD Peak Flow % change from baseline, Max",82%
same,"Pre-BD Peak Flow % change from baseline, Mean ± SD",31.8 ± 45.54%
same,"Pre-BD Peak Flow % change from baseline, Median",21.9%
same,"Pre-BD Peak Flow % change from baseline, Min",−8%
same,"Pre-BD Peak Flow % change from baseline, Q1",−8%
same,"Pre-BD Peak Flow % change from baseline, Q3",82%
same,"Pre-BD Peak Flow Observed, Max",285 L/min
same,"Pre-BD Peak Flow Observed, Mean ± SD",208.7 ± 66.53 L/min
same,"Pre-BD Peak Flow Observed, Median",178.0 L/min
same,"Pre-BD Peak Flow Observed, Min",163 L/min
same,"Pre-BD Peak Flow Observed, Q1",163 L/min
same,"Pre-BD Peak Flow Observed, Q3",285 L/min
same,"Pre-BD Peak Flow change from baseline, Max",128 L/min
same,"Pre-BD Peak Flow change from baseline, Mean ± SD",48.7 ± 72.45 L/min
same,"Pre-BD Peak Flow change from baseline, Median",32.0 L/min
same,"Pre-BD Peak Flow change from baseline, Min",-14 L/min
same,"Pre-BD Peak Flow change from baseline, Q1",-14 L/min
same,"Pre-BD Peak Flow change from baseline, Q3",128 L/min
